From patent publication US9694016B2 (Novartis AG, priority 2013, dated 2017)

Biological target: b-Raf (V600E) (Homo sapiens (Human), UniProt P15056, V600E)
Settings: read-out: b-Raf IC-50; AlphaScreen, 60 min pre-incubation, 3 hours reaction

Sequence of b-Raf (V600E) (P15056 whole entry V600E): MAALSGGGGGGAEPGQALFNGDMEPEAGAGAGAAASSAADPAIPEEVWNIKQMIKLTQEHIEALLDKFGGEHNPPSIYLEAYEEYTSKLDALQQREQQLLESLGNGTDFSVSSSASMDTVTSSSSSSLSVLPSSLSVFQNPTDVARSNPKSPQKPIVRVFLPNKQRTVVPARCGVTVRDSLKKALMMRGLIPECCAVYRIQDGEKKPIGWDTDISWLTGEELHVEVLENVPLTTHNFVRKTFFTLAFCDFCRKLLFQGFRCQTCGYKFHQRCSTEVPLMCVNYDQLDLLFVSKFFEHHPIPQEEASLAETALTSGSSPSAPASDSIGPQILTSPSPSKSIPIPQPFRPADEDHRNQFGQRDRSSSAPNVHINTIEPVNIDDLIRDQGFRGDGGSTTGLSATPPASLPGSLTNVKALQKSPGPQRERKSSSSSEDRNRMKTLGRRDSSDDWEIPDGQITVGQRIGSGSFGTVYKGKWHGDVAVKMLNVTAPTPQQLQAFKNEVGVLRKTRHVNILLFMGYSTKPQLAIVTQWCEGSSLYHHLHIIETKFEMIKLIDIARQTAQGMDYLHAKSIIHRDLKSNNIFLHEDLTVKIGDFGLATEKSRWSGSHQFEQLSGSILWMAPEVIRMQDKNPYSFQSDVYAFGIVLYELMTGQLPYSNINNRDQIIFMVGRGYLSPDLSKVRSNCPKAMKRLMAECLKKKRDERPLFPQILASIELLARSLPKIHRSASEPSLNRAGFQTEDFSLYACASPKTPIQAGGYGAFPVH

IC50 [nM]	Compound
0.9	Cc1ccc(NC(=O)c2ccnc(C(C)(C)C)c2)cc1-c1cc(N2CCOCC2)c2nccn2n1 [Example 845, 2-(tert-butyl)-N-(4-methyl-3-(8-morpholinoimidazo[1,2-b]pyridazin-6-yl)phenyl)isonicotinamide]
1.1	COCCOc1nnc(-c2cc(NC(=O)c3ccnc(C(C)(C)C#N)c3)ccc2C)cc1N1CCOCC1 [Example 601, 2-(2-cyanopropan-2-yl)-N-(3-(6-(2-methoxyethoxy)-5-morpholinopyridazin-3-yl)-4-methylphenyl)isonicotinamide]
21.9	Cc1ncc(NC(=O)c2ccnc(C(C)(C)C#N)c2)cc1-c1cc(N2CCOCC2)n(C)c(=O)c1 [Example 499, 2-(2-cyanopropan-2-yl)-N-(1′,2-dimethyl-6′-morpholino-6′-oxo-1′,2′-dihydro-[3,4′-bipyridin]-5-yl)isonicotinamide]

The remaining lines, values behind:

Compound	IC50 [nM]
Cc1ncc(NC(=O)c2cccc(C(F)(F)F)c2)cc1-c1cc(N2CCOCC2)nc(NC[C@H](C)O)n1 [Example 740, (S)—N-(5-(2-((2-hydroxypropyl)amino)-6-morpholinopyrimidin-4-yl)-6-methylpyridin-3-yl)-3-(trifluoromethyl)benzamide]	2.1
Cc1ncc(NC(=O)c2cnnc(C(F)(F)F)c2)cc1-c1cc(N2CCOCC2)n2nccc2n1 [Example 801, N-(6-methyl-5-(7-morpholinopyrazolo[1,5-a]pyrimidin-5-yl)pyridin-3-yl)-6-(trifluoromethyl)pyridazine-4-carboxamide]	3
Cc1ccc(NC(=O)c2cccc(-c3nnco3)c2)cc1-c1cc(N2CCOCC2)c(=O)n(C)n1 [Example 639, N-(4-methyl-3-(1-methyl-5-morpholino-6-oxo-1,6-dihydropyridazin-3-yl)phenyl)-3-(1,3,4-oxadiazol-2-yl)benzamide]	7.3
CCNc1nc(-c2cc(NC(=O)c3ccnc(C(F)(F)CC)c3)ccc2C)cc(N2CCOCC2)n1 [Example 706, 2-(1,1-difluoropropyl)-N-(3-(2-(ethylamino)-6-morpholinopyrimidin-4-yl)-4-methylphenyl)isonicotinamide]	0.8
Cc1ccc(NC(=O)c2cccc(C(C)(C)S(C)(=O)=O)c2)cc1-c1cc(N2CCOCC2)n(C)c(=O)c1 [Example 494, N-(4-methyl-3-(1-methyl-6-morpholino-2-oxo-1,2-dihydropyridin-4-yl)phenyl)-3-(2-(methylsulfonyl)propan-2-yl)benzamide]	16.8
Cc1ccc(NC(=O)c2ccnc(C(C)(F)F)c2)cc1-c1cc(N2C3CCC2COC3)cc(=O)n1C [Example 691, N-(3-(4-(3-oxa-8-azabicyclo[3.2.1]octan-8-yl)-1-methyl-6-oxo-1,6-dihydropyridin-2-yl)-4-methylphenyl)-2-(1,1-difluoroethyl)isonicotinamide]	23.8

Same assay, conditions: read-out: b-Raf IC-50; AlphaScreen, 60 min pre-incubation, reaction 3 hours at room temperature

IC50 [nM]	Compound
0.83	Cc1ncc(NC(=O)c2cccc(C(F)(F)F)c2)cc1-c1cnc(N(C)CCO)c(N2CCOCC2)c1 [Example 986, N-(6′-((2-hydroxyethyl)(methyl)amino)-2-methyl-5′-morpholino-[3,3′-bipyridin]-5-yl)-3-(trifluoromethyl)benzamide]
6.43	Cc1ncc(NC(=O)c2ccnc(C(C)C)c2)cc1-c1cc(N2CCOCC2)nc(N2CC(O)C2)c1 [Example 1081, N-(2′-(3-hydroxyazetidin-1-yl)-2-methyl-6′-morpholino-[3,4′-bipyridin]-5-yl)-2-isopropylisonicotinamide]
40.6	Cc1ncc(NC(=O)c2ccnc(C(C)(C)C#N)c2)cc1-c1cc(NCCO)nc(N2CCOCC2)c1 [Example 1042, 2-(2-cyanopropan-2-yl)-N-(2′-((2-hydroxyethyl)amino)-2-methyl-6′-morpholino-[3,4′-bipyridin]-5-yl)isonicotinamide]
1.9	Cc1ccc(NC(=O)c2ccnc(C(C)(C)F)c2)cc1-c1cc(N2CCOCC2)c(S(C)(=O)=O)nn1 [Example 928, 2-(2-fluoropropan-2-yl)-N-(4-methyl-3-(6-(methylsulfonyl)-5-morpholinopyridazin-3-yl)phenyl)isonicotinamide]
5.72	Cc1ncc(NC(=O)c2ccnc(C(C)(F)F)c2)cc1-c1cc(NCCO)nc(N2CCOCC2)c1 [Example 1041, 2-(1,1-difluoroethyl)-N-(2′-((2-hydroxyethyl)amino)-2-methyl-6′-morpholino-[3,4′-bipyridin]-5-yl)isonicotinamide]
8.13	Cc1ncc(NC(=O)c2ccnc(C(C)(C)O)c2)cc1-c1cnc(OC2CC3(COC3)C2)c(N2CCOCC2)c1 [Example 964, N-(6′-(2-oxaspiro[3.3]heptan-6-yloxy)-2-methyl-5′-morpholino-[3,3′-bipyridin]-5-yl)-2-(2-hydroxypropan-2-yl)isonicotinamide]
7.5	Cc1ncc(NC(=O)c2ccnc(C(C)(C)O)c2)cc1-c1cc(N2CCOCC2)c2nccn2n1 [Example 870, 2-(2-hydroxypropan-2-yl)-N-(6-methyl-5-(8-morpholinoimidazo[1,2-b]pyridazin-6-yl)pyridin-3-yl)isonicotinamide]

More lines, now with the values behind:

Compound	IC50 [nM]
Cc1ccc(NC(=O)c2ccnc(C(F)F)c2)cc1-c1cc(OC2CCOCC2)nc(N2CCOCC2)c1 [Example 1151, 2-(difluoromethyl)-N-(4-methyl-3-(2-morpholino-6-((tetrahydro-2H-pyran-4-yl)oxy)pyridin-4-yl)phenyl)isonicotinamide]	0.6
Cc1ccc(NC(=O)c2ccnc(C(F)(F)F)c2)cc1-c1cc(N2CCOCC2)nc(N2CCOCC2)c1 [Example 1112, N-(3-(2,6-dimorpholinopyridin-4-yl)-4-methylphenyl)-2-(trifluoromethyl)isonicotinamide]	0.83
Cc1ncc(NC(=O)c2ccnc(C(F)(F)F)c2)cc1-c1cc(NCCO)nc(N2CCOC[C@H]2C)c1 [Example 1140, (R)—N-(2′-((2-hydroxyethyl)amino)-2-methyl-6′-(3-methylmorpholino)-[3,4′-bipyridin]-5-yl)-2-(trifluoromethyl)isonicotinamide]	13.4
Cc1ccc(NC(=O)c2ccnc(C(C)(F)F)c2)cc1-c1cc(NCCO)nc(N2CCOCC2)c1 [Example 1037, 2-(1,1-difluoroethyl)-N-(3-(2-((2-hydroxyethyl)amino)-6-morpholinopyridin-4-yl)-4-methylphenyl)isonicotinamide]	1.07
Cc1ccc(NC(=O)c2cccc(-c3nnco3)c2)cc1-c1cc(N2CCOCC2)nc(N2CC(O)C2)c1 [Example 1100, N-(3-(2-(3-hydroxyazetidin-1-yl)-6-morpholinopyridin-4-yl)-4-methylphenyl)-3-(1,3,4-oxadiazol-2-yl)benzamide]	3.89
CCn1cc(C(=O)Nc2ccc(C)c(-c3cc(N4CCOCC4)nc(N4CC(O)C4)c3)c2)cc(C(F)(F)F)c1=O [Example 1061, 1-ethyl-N-(3-(2-(3-hydroxyazetidin-1-yl)-6-morpholinopyridin-4-yl)-4-methylphenyl)-6-oxo-5-(trifluoromethyl)-1,6-dihydropyridine-3-carboxamide]	3.05
Cc1ccc(NC(=O)c2ccnc(C(C)(C)C#N)c2)cc1-c1nc2c(c(N3CCOCC3)n1)CN(C(=O)OC(C)(C)C)CC2 [Example 864, tert-butyl 2-(5-(2-(2-cyanopropan-2-yl)isonicotinamido)-2-methylphenyl)-4-morpholino-7,8-dihydropyrido[4,3-d]pyrimidine-6(5H)-carboxylate]	70.2
Cc1ccc(NC(=O)c2cnnc(C(C)(C)C#N)c2)cc1-c1cc(NCCO)nc(N2CCOCC2)c1 [Example 1049, 6-(2-cyanopropan-2-yl)-N-(3-(2-((2-hydroxyethyl)amino)-6-morpholinopyridin-4-yl)-4-methylphenyl)pyridazine-4-carboxamide]	7.69
Cc1ccc(NC(=O)c2ccnc(C3(C#N)CC3)c2)cc1-c1cc(N2CCOCC2)nc(N2CC(C)(O)C2)c1 [Example 1111, 2-(1-cyanocyclopropyl)-N-(3-(2-(3-hydroxy-3-methylazetidin-1-yl)-6-morpholinopyridin-4-yl)-4-methylphenyl)isonicotinamide]	2.09

Same assay, conditions: read-out: b-Raf IC-50; Table 2; AlphaScreen, 3 hours reaction

IC50 [nM]	Compound
1.6	Cc1ncc(NC(=O)c2cccc(C(F)(F)F)c2)cc1-c1cnc(O[C@H]2CC[C@@H](O)CC2)c(N2CCOCC2)c1 [Example 317, N-(6′-(((1s,4s)-4-hydroxycyclohexyl)oxy)-2-methyl-5′-morpholino-[3,3′-bipyridin]-5-yl)-3-(trifluoromethyl)benzamide]
0.7	Cc1ncc(NC(=O)c2cnnc(C3CC3)c2)cc1-c1cnc(N(C)C)c(N2CCOCC2)c1 [Example 271, 6-cyclopropyl-N-(6′-(dimethylamino)-2-methyl-5′-morpholino-[3,3′-bipyridin]-5-yl)pyridazine-4-carboxamide]

The remaining lines, values behind:

Compound	IC50 [nM]
Cc1nn(C)cc1C(=O)Nc1cnc(C)c(-c2cc(N3CCOCC3)c(=O)n(C)c2)c1 [Example 374, N-(1′,2-dimethyl-5′-morpholino-6′-oxo-1′,6′-dihydro-[3,3′-bipyridin]-5-yl)-1,3-dimethyl-1H-pyrazole-4-carboxamide]	3400
Cc1ccc(C(=O)Nc2cccc(C(F)(F)F)c2)cc1-c1cc(N2CCS(=O)(=O)CC2)nc(N2CCOCC2)n1 [Example 7, 3-(6-(1,1-dioxidothiomorpholino)-2-morpholinopyrimidin-4-yl)-4-methyl-N-(3-(trifluoromethyl)phenyl)benzamide]	2.5
Cc1ccc(NC(=O)c2cc(C3CC3)on2)cc1-c1cc(N2CCOCC2)c(=O)n(C)c1 [Example 372, 5-cyclopropyl-N-(4-methyl-3-(1-methyl-5-morpholino-6-oxo-1,6-dihydropyridin-3-yl)phenyl)isoxazole-3-carboxamide]	0.7
Cc1ccc(NC(=O)c2cccc(C(C)(C)S(C)(=O)=O)c2)cc1-c1cc(N2CCOCC2)c(=O)n(C)c1 [Example 351, N-(4-methyl-3-(1-methyl-5-morpholino-6-oxo-1,6-dihydropyridin-3-yl)-phenyl)-3-(2-(methylsulfonyl)propan-2-yl)benzamide]	19.5
